From patent publication US12409169B2, “Composition comprising clay mineral complex for prevention, alleviation, and treatment of inflammatory bowel disease, preparation method for composition, and method for alleviation and treatment for inflammatory bowel disease” (Korea Institute Of Geoscience And Mineral Resources, priority 2019, dated 2025) come the findings set out here.

Where “and” joins values, the source holds several entries; their conditions need not be identical. Equal entries are not always repeated. Where two headings read alike, the source gives them in different places.

One may read the Tmax as the time from dosing to the highest level. In general, half-life refers to how long it takes for the measured level to halve. Lower therefore signals fast loss.

Data set [1] is described as follows: adsorption rate of vactosertib onto bentonite. The format is physicochemical. The following applies: vactosertib 0.4 mg/ml, bentonite 0.5 mg/mL, pH 1. The protocol:
The adsorption rates of vactosertib and bentonite according to the pH of a solvent were evaluated. At this time, considering that the vactosertib was not dissolved in neutral, but stated to be dissolved in about 1 mg/mL from pH 3, a test was performed by setting a reaction pH to pH 1, pH 2, and pH 3. First, 10 mg/mL of the vactosertib was dissolved in a 0.1 N hydrochloric acid aqueous solution and diluted with a hydrochloric acid aqueous solution or a phosphate buffer solution (pH 1: 0.1 N hydrochloric acid aqueous solution, pH 2, pH 3: phosphate buffer solution) corresponding to each pH to adjust the concentration to 1 mg/mL. […] Thereafter, a drug concentration of a supernatant obtained by centrifugation (3,000 rpm, 5 minutes) was analyzed. Through this, the drug amount adsorbed onto the bentonite was indirectly calculated as shown in Equation 1 by removing the remaining drug amount in the supernatant from the entirely applied drug (vactosertib) to calculate an adsorption rate. […] In addition, a difference in adsorption rate according to the concentration of vactosertib was measured. […] In addition, a difference in adsorption rate according to an absolute concentration was measured.

Data set [2] concerns ulcerative colitis mouse model induced with DSS. Nature of the data set: histopathological severity scores in ulcerative colitis mouse model induced with DSS. It counts as in vivo, C57BL/6 mice. The settings on record: DSS mice, Dunn's test. As for the experimental part: Animal tests were performed to confirm anti-inflammatory, anti-crypt cell damage, anti-ulcer, anti-edema, and anti-fibrosis effects of a vactosertib/bentonite complex using a mouse model of ulcerative colitis as one of inflammatory bowel diseases. C57BL/6 mice were selected as test animals, and in order to induce ulcerative colitis, a cycle in which an inflammation inducing substance, DSS was added in drinking water and supplied for 7 days, and then normal drinking water was supplied for 14 days was repeated. Such an inflammation inducing cycle was repeated 3 times to induce chronic inflammation, ulcer and fibrous conditions in the large intestine. To test animal groups except for control groups, from 3 weeks after a first inflammation inducing cycle was elapsed, bentonite, vactosertib, or a vactosertib/bentonite complex was administered twice a day (10 am, 4 pm), 5 days a week, and for total 6 weeks. The bentonite per 1 kg of converted mouse weight was administered with 106.8 mg, the vactosertib was administered with 20.0 mg, and the complex was administered with 126.8 mg. At this time, as the vactosertib/bentonite complex, the complex prepared in Test Example 5 was used. For each test group used in ulcerative colitis animal tests, inflammation inducing substances, test substances, doses of the test substances, and the number of test animals were shown in Table 7 below.
C57BL/6 mice used in the test were supplied from the Orient Bio Gapyeong Center (699-13, Mokdong-ri, Buk-yeon, Gapyeong-gun, Gyeonggi-do), and about 6-week-old during obtaining. For about 7 days after obtaining, the rats were quarantined and purified and then healthy animals were used for the test. When the induced material was administered, the test animals were about 8-week-old, and 52 mice were used. The test animals were bred in the 2nd floor of Clean Animal Room, Bioscience Research Institute, Research Institute of Medical Science at Inha University, and circulated in at least 10 times/hour and bred under conditions of a temperature of 22-4° C., relative humidity of 50±20%, and illuminance of 150 to 300 Lux of lighting on for 12 hours (lighting: 08:00 to 20:00). A radiation solid feed (FeedLab GMO Free Rodent Diet GF2005) for rodents was free-taken using a feeder and water sterilized by an ultraviolet-ray flowing water sterilizer and high-pressure vapor after reverse osmosis was free-taken using a polysulfonate-made drinking water bottle (300 ml).
In order to induce ulcerative colitis, 2% DSS was added in drinking water of mice and continuously supplied for first 7 days of every test cycle (3 weeks). The test substances were orally administered 2 times a day, 5 days a week, and for a total of 6 weeks at the same time of second DSS induction (FIG. 14). […]
In order to evaluate a treatment effect of test substances on ulcerative colitis, after the end of the test, the animal was anesthetized, opened, and bled and then a histopathological test was performed for each individual. Histopathological findings were subdivided and scored into severity changes of inflammation, crypt cell damage, ulcer, edema, and fibrosis as shown in Table 8 below. […]
Statistical analysis was performed using Graphpad Prism version 8.01, and a minimum unit of significance was set to p<0.05. Since all measured histopathological indexes were nonparametric data, the indexes were represented by a median, 25% to 75% values (in the box), and minimum-maximum values (both ends) in the graph (FIGS. 15 to 20). […]

The subject of a further data set is interleukin 6 (IL-6). Nature of the data set: immunohistochemical IL-6 staining of large intestine tissue in DSS ulcerative colitis mouse model. The format is in vivo, C57BL/6 mice. The following applies: DSS 2% mice. As for the experimental part: Animal tests were performed to confirm anti-inflammatory, anti-crypt cell damage, anti-ulcer, anti-edema, and anti-fibrosis effects of a vactosertib/bentonite complex using a mouse model of ulcerative colitis as one of inflammatory bowel diseases. C57BL/6 mice were selected as test animals, and in order to induce ulcerative colitis, a cycle in which an inflammation inducing substance, DSS was added in drinking water and supplied for 7 days, and then normal drinking water was supplied for 14 days was repeated. Such an inflammation inducing cycle was repeated 3 times to induce chronic inflammation, ulcer and fibrous conditions in the large intestine. […]
In order to observe an immunohistochemical change of a large intestine tissue, a tissue fixed to a 10% neutral buffer formalin solution was sliced, attached to a coating slide, and deparaffinized, and then stained, and IHC of reacting with antibodies IL-6 (Interleukin-6), α-SMA ((α-smooth muscle actin), and TGF-β (transforming growth factor beta) on each slide was requested to an external institute (Notus) and the test was performed. In an individual-specific tissue slide, three constant zones were specified and imaged 100 times, a stained portion to the total area was measured, and a mean value was calculated (Zen 2.3 blue edition, Carl Zeiss, Germany). […]

Data set [3] is described as follows: pharmacokinetic analysis after oral administration in SD rats. The format is in vivo. The following applies: 10 mg/kg based on vactosertib. The protocol: In order to confirm a change in plasma concentration in actual oral administration of the bentonite/vactosertib complex, a pharmacokinetic analysis test was performed using SD rats of about 7 weeks of age. The existing vactosertib powder, an aqueous solution dissolved with the vactosertib powder in a pH 3 buffer solution, and the bentonite/vactosertib complex were used as samples and a dose was set to 10 mg/kg based on the drug (that is, vactosertib) amount. Each sample was orally administered in rats and then the blood was collected by time, and preprocessed to analyze a plasma drug concentration.

Data set [4] can be described thus: elution test (drug release through semi-permeable membrane). It counts as physicochemical. The protocol:
An elution test of vactosertib was performed to confirm a change in which the vactosertib was adsorbed onto bentonite and then released. At this time, in order to predict the drug release from the upper digestive tract and the lower digestive tract, the elution was performed under different pH conditions. To this end, the test was performed by using a 0.1 N HCl solution (pH 1.2), a 50 mM acetate buffer solution (pH 4.5), and a 50 mM phosphate buffer solution (pH 7.4) as eluates, respectively. At this time, in all the eluates, Tween80 was dissolved and used at a concentration of 0.1% to impart a sufficient elution environment of vactosertib. The vactosertib powder and the bentonite/vactosertib complex were formed to a dispersion to be 1 mg/mL based on the vactosertib concentration and 0.3 mL thereof was sealed in a semi-permeable membrane and then put in 30 mL of each eluate to perform the elution. Thereafter, each eluate was collected by 0.2 mL for each predetermined time, a drug concentration was analyzed to compare elution rates.

As for `Cc1cccc(-c2[nH]c(CNc3ccccc3F)nc2-c2ccc3ncnn3c2)n1` [vactosertib, N-((4-([1,2,4]triazolo[1,5-a]pyridine-6-yl)-5-(6-methylpyridin-2-yl)-1H-imidazol-2-yl)methy 1)-2-fluoroaniline], in data set [1], the Adsorption rate amounted to 28.0 ± 0.8%. The “median of inflammation index compared with positive control group (G2)” value in data set [2] (FIG. 15) is on record as “slightly low”. For the same molecule, in data set [2] (FIG. 16), the “median of crypt cell damage index compared with positive control group (G2)” value was “low in a median of a crypt cell damage index, but had no statistical significance”. In addition, the “median of ulcer index compared with positive control group (G2)” value in data set [2] (FIG. 17) was “low in a median of an ulcer index, but had no statistical significance”. The “median of fibrosis index compared with positive control group (G2)” value in data set [2] (FIG. 19) is “slightly low”. In addition, the “median of summed severity scores (except fibrosis) compared with positive control group (G2)” value in data set [2] (FIG. 20) is recorded as “low in a median of an ulcer index, but had no statistical significance”. Moreover, the “reduction of IL-6 staining area as compared with G2 group” value in the data set with interleukin 6 (IL-6) stood at 23.0%.

In the case of `Cc1cccc(-c2[nH]c(CNc3ccccc3F)nc2-c2ccc3ncnn3c2)n1` [Vactosertib aqueaous solution], in data set [3], the AUCinf came to 111.97 ± 33.28 µg·min/mL, the AUClast came out at 111.73 ± 33.05 µg·min/mL, the Cmax is 2770 ± 550 ng/mL and the Tmax is 15 ± 0 min. The Tmax in data set [3] (listed as vactosertib aqueous solution) was 15 min and 15 ± 0 min. The molecule also had a half-life in data set [3] (SD, rat, plasma, po, 10 mg/kg) of 45.9 ± 6.84 min. Besides, the Cmax in data set [3] (SD, rat, plasma, po, 10 mg/kg, read-out: maximum plasma concentration Cmax) was 2770 ± 550 ng/mL.

Take `Cc1cccc(-c2[nH]c(CNc3ccccc3F)nc2-c2ccc3ncnn3c2)n1` [Vactosertib powder]: in data set [4] (0.1 N HCl solution (pH 1.2), 0.1% Tween80), the elution rate result was “rapidly eluted”. The elution rate entry in data set [4] (at a higher pH than pH 1.2) is “significantly decreased”. In addition, in data set [3], the AUCinf was determined as 45.46 ± 27.67 µg·min/mL, the AUClast worked out at 44.65 ± 28.60 µg·min/mL, the Cmax was 610 ± 570 ng/mL and the Tmax came out at 67.5 ± 75 min. This molecule also gave a t1/2 in data set [3] of 51.96 ± 21.93 min.
